Where “and” joins values, the source holds several entries; their conditions need not be identical. Identical values can stand only once.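 Cells were grown in 96-well plates and exposed to each compound for 48 hours at five concentrations; endpoints were interpolated linearly between bracketing concentrations, or set to the highest concentration if not reached. GI50 = concentration required for 50% inhibition of growth. The concentration for full growth arrest is given as TGI.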
Assays:
Assay in all cases: DTP human tumour cell line panel, 48 h
[1] = tested on: OVCAR-3 ovarian
[2] = tested on: MDA-MB-435
[3] = tested on: NCI/ADR-RES ovarian
[4] = tested on: MOLT-4 leukemia
[5] = tested on: KM12 colon
[6] = tested on: BT-549 breast
[7] = tested on: M14 melanoma
[8] = tested on: T-47D breast
[9] = tested on: LOX IMVI melanoma
[10] = tested on: RXF 393 renal

| Structure (SMILES) | GI50 [1] [nM] | TGI [1] [µM] | GI50 [2] [nM] | TGI [2] [nM] | GI50 [3] [nM] | TGI [3] [µM] | GI50 [4] | TGI [4] [µM] | GI50 [5] [nM] | TGI [5] [µM] | GI50 [6] [nM] | TGI [6] [µM] | GI50 [7] [nM] | TGI [7] [µM] | TGI [8] [nM] | TGI [9] [µM] | TGI [10] | GI50 [10] [nM] | GI50 [9] [nM] | GI50 [8] [nM] |
| --- | --- | --- | --- | --- | --- | --- | --- | --- | --- | --- | --- | --- | --- | --- | --- | --- | --- | --- | --- | --- |
| O=C(Oc1ccc(Cl)cc1Cl)c1ccccc1Nc1ccnc(C(F)(F)F)c1 | 11000 | 24.9 | 2910 | 8100 | 3660 | 11.7 | > 100000 nM | > 100 | 3690 | 21.1 | 6700 | 25.4 | 1920 | 4.93 |  |  |  |  |  |  |
| COc1cc([C@H]2c3cc4c(cc3O[C@@]3(O)COC(=O)[C@@H]23)OCO4)cc(OC)c1OC |  | > 100 |  | > 100000 |  | > 100 |  | > 100 |  | > 100 |  |  |  | > 100 | > 100000 | > 100 |  |  |  |  |
| O=C(O)c1c(-c2cccc3ccccc23)sc(-c2cccc3ccccc23)c1C(=O)O |  | > 100 |  |  |  |  |  | 85.7 |  | > 100 |  |  |  | > 100 |  | > 100 | > 100 µM |  |  |  |
| O=C(c1ccccc1)C(C(=O)c1ccccc1)C1(O)C(=O)c2ccccc2C1=O |  | > 100 |  |  |  |  |  | > 100 |  | > 100 |  |  |  | > 100 |  | > 100 | 0.889 µM |  |  |  |
| COc1cc(C2C=C(c3cccc(NC(C)=O)c3)Nc3ncnn32)cc(OC)c1OC (stereo not drawn) | 236 | 0.645 | 117 | 579 | 8040 | 63.7 | 1650 nM | > 100 | 396 | > 100 | 1070 | > 100 | 392 | > 100 |  | > 100 | > 100 µM | 576 | 596 |  |
| CCOC(=O)C(=O)Nc1nc2c(s1)C(=O)c1ccccc1C2=O |  | 18.6 |  |  |  |  |  | 18.9 |  | 30.6 |  |  |  | 32.7 |  |  |  |  |  |  |
| O=C(c1ccccc1)C(c1ccccc1)C1(O)C(=O)Nc2c(Cl)cc(Cl)cc21 (stereo not drawn) |  | > 100 |  |  |  |  |  | 61.9 |  | 82.8 |  |  |  | 37.9 |  | 42.8 | 34.4 µM |  |  |  |
| CCC[CH2][Sn-]([CH2]CCC)([CH2]CCC)[O]c1cc(Cl)c(Cl)cc1Cl | 176 | 0.365 | 160 | 359 | 163 | 0.385 | 167 nM | 0.545 | 195 | 0.402 |  |  |  |  | 350 | 0.34 | 0.509 µM | 196 | 175 | 137 |
| CCOC(=O)[C@@]1(C)C=C2O[C@@H]3OC4(CCCCC4)O[C@@H]3C2=C2C(O)=CC=C(O)[C@]21C(=O)OC |  | > 68 |  |  |  |  |  | > 68 |  | > 68 |  |  |  | > 68 |  | > 68 |  |  |  |  |
| O=C(O)CSc1n[nH]c(-c2ccc(O)cc2)n1 |  | > 100 |  |  |  |  |  | > 100 |  | > 100 |  |  |  | > 100 |  |  |  |  |  |  |
| O=C(CNc1nncs1)NO |  | > 100 |  |  |  |  |  | > 100 |  | > 100 |  |  |  | > 100 |  |  | > 100 µM |  |  |  |
| N#CCC(=O)Nc1cccc(C(F)(F)F)c1 |  | > 100 |  |  |  |  |  | > 100 |  | > 100 |  |  |  | > 100 |  | > 100 | > 100 µM |  |  |  |
| C=C1C(=O)O[C@H]2[C@H]1CC/C(COC(=O)c1cc3cc(F)ccc3[nH]1)=C\CC[C@@]1(C)O[C@@H]21 | 1200 | 2.66 | 1500 | 2960 | 1980 | 5.39 | 2260 nM | 9.23 | 1980 | 5.06 |  |  | 1890 | 4.11 |  | 2.46 | 2.87 µM | 1470 | 1050 |  |
| CC(=O)O/C=C(/C=C/OC(C)=O)C(C/C=C(\C)C#CC=C(C)C)OC(C)=O (stereo not drawn) |  | 68.6 |  |  |  |  |  | > 100 |  | 61.5 |  |  |  | 98.6 |  | 70.7 |  |  |  |  |
| COc1ccc2cc(C(=O)/C=C/c3cc(OC)c(OC)c(OC)c3)ccc2c1 | 5860 | > 50 | 2670 | 40500 |  |  | 2910 nM | > 50 | 2300 | 35.7 | 5700 | 19.5 | 6520 | 16.1 | > 50000 | 11 |  |  | 2550 | > 50000 |
| COc1cc(CCc2ccc(OCCN(C)C)cc2)cc(OC)c1OC |  | > 100 |  |  |  |  |  | > 100 |  | > 100 |  |  |  | > 100 |  | > 100 | > 100 µM |  |  |  |
| Cc1ccc(-[n+]2c3cc(N)c(C)cc3nc3cc(C)c(Nc4ccccc4)cc32)cc1 |  |  | 81.4 | 358 |  |  | 244 nM | 1.69 | 76.7 | 0.3 | 128 | 0.717 | 134 | 0.428 | 1020 |  |  |  |  | 88.6 |
| Cc1nc2c(nc1C)C(=O)c1cc(O)ccc1C2=O |  | > 100 |  |  |  |  |  | > 100 |  | > 100 |  |  |  | > 100 |  | > 100 | > 100 µM |  |  |  |

| Structure (SMILES) | GI50 [1] [nM] | TGI [1] [µM] | GI50 [2] [nM] | TGI [2] [nM] | GI50 [3] [nM] | TGI [3] [µM] | GI50 [4] | TGI [4] [µM] | GI50 [5] [nM] | TGI [5] [µM] | GI50 [6] [nM] | TGI [6] [µM] | GI50 [7] [nM] | TGI [7] [µM] | TGI [8] [nM] | TGI [9] [µM] | TGI [10] | GI50 [10] [nM] | GI50 [9] [nM] | GI50 [8] [nM] |
| --- | --- | --- | --- | --- | --- | --- | --- | --- | --- | --- | --- | --- | --- | --- | --- | --- | --- | --- | --- | --- |
| Cc1cc(-c2ncc(CC(=O)Nc3ccc(-c4cnccn4)cn3)cc2C)ccn1 | 41200 | > 100 | 21800 | > 100000 | 17600 | > 100 | 23900 nM | > 100 | 36100 | > 100 |  |  |  |  |  | > 100 | > 100 µM | 42200 | 68700 |  |
| Cn1c(=O)nc2n(-c3ccc(Cl)cc3)c3ccc(Cl)cc3nc-2c1=O |  | 8.14 |  |  |  |  |  | 65.7 |  | 32 |  |  |  | 21.8 |  | 13.1 | 7.93 µM |  |  |  |
| CCOc1ccccc1NC(=O)C(=O)CC(=O)c1c(C)n([O-])c2ccccc2[n+]1=O |  | 75.8 |  |  |  |  |  | > 100 |  | > 100 |  |  |  | > 100 |  | > 100 | > 100 µM |  |  |  |
| Nn1c(-c2ccccc2)nc2ccc(Br)cc2c1=O |  | 81.9 |  |  |  |  |  | 50.5 |  | > 100 |  |  |  | > 100 |  |  |  |  |  |  |
| CC1=C(C)C(=O)c2c(cc3ccc4ccccc4n23)C1=O |  | > 100 |  |  |  |  |  | > 100 |  | > 100 |  |  |  | > 100 |  | > 100 | > 100 µM |  |  |  |
| O=C1CC(O)C=C1Nc1ccc(Cl)cc1 (stereo not drawn) |  | > 100 |  |  |  |  |  | > 100 |  | 39.2 |  |  |  | > 100 |  | > 100 | > 100 µM |  |  |  |
| COC(=O)C1CC2(CC3=C1CCCC3)OCCO2 (stereo not drawn) |  | > 100 |  |  |  |  |  |  |  | > 100 |  |  |  | > 100 |  | > 100 | > 100 µM |  |  |  |
| CC[C@H](C)N(CCN)C(=O)c1cc2ccccc2c(-c2ccccc2Cl)n1 |  | 34 |  |  |  |  |  | 24.9 |  | 29.6 |  |  |  | 44.8 |  | 27.7 | 19.7 µM |  |  |  |
| O=C1C(=O)N(C(=O)c2ccc(Cl)c(Cl)c2)c2ccccc21 |  | > 100 |  |  |  |  |  | > 100 |  | > 100 |  |  |  | > 100 |  | > 100 | > 100 µM |  |  |  |
| COc1ccc(Cl)cc1Nc1nc(C(F)(F)F)ccc1C(=O)N/N=C/c1c(Cl)cccc1Cl | 1590 | 4.32 | > 100000 | > 100000 |  |  | 2360 nM | 10.7 |  |  | 1200 | 6.84 |  |  | > 100000 | > 100 | 58.8 µM | 17900 | 5140 | 4410 |
| Cc1cc2c(c(C#N)c1C)NC(=O)CCC2=O |  | > 100 |  |  |  |  |  | > 100 |  | > 100 |  |  |  | > 100 |  |  | > 100 µM |  |  |  |
| COC(=O)N[C@H]1CCc2c(Br)c(OC)c(OC)c(OC)c2-c2ccc(SC)c(=O)cc21 | < 10 | < 0.01 | < 10 | < 10 | 17.9 |  | < 10 nM | 21.7 | < 10 | 10.6 | < 10 | 14.9 | < 10 | 8.53 |  | 12 |  |  | < 10 |  |
| N#Cc1cn(C2OC(CO)C(O)C2O)c2ncnc(N)c12 (stereo not drawn) |  |  |  |  | 45.9 |  | 45 nM and 31.9 nM |  |  | > 100 |  |  |  | 21.9 |  |  | 0.0958 µM and 0.0708 µM | 16.1 | < 10 |  |
| CNC(P(=O)([O-])[O-])P(=O)([O-])[O-].N.N.[Pt+2] | > 100000 | > 100 |  |  |  |  |  |  |  |  |  |  | > 100000 | > 100 |  | > 100 | > 100 µM | > 100000 | > 100000 |  |
| CC1=C(C(=O)Nc2c(C)cccc2C)C(c2ccc3c(c2)OCO3)C(C(=O)Nc2c(C)cccc2C)=C(C)N1 |  | 98.6 |  |  |  |  |  | 61.5 |  | 29.1 |  |  |  | 33.9 |  | 28.1 | 33.9 µM |  |  |  |
| Nc1ccn(CCOC(=O)c2ccccc2)c(=O)n1 |  | > 100 |  |  |  |  |  |  |  | > 100 |  |  |  | > 100 |  | > 100 | > 100 µM |  |  |  |
| COc1cc(OC)c([C@@H]2OC(=O)C3C2C(=O)O[C@H]3c2cc(OC)c(OC)cc2OC)cc1OC (stereo partly drawn) |  | > 100 |  |  |  |  |  | > 100 |  | > 100 |  |  |  | > 100 |  |  | > 100 µM |  |  |  |
| Cc1ccc(OCC(=O)N2N=C(c3ccccc3)CC2(O)c2ccccc2)cc1 (stereo not drawn) |  | > 100 |  |  |  |  |  | > 100 |  | > 100 |  |  |  | 90 |  | > 100 |  |  |  |  |

Source: PubChem BioAssay (NCI)
